# US20050107450A1, “Dosing regimen for ppar-gamma activators” (priority 2001, published 2005)
# Read-outs that look alike come from different tables or passages of the source.
# Legend:
# [1] = tested on: Normal Han Wistar female adult rats; assay: Study 1: rat model of PPAR-gamma activator induced fluid retention/edema; assay type: in vivo; conditions: 8 mg/kg bid oral, 21 days, compared with vehicle treated control rats
# Description: Rat Model of PPAR-Gamma Activator Induced Fluid Retention/Edema
# Normal Han Wistar female adult rats were housed in metabolic cages and orally dosed (8 mg/kg, bid) with PPAR-gamma activator or vehicle (PEG400, 1 ml/kg) for 21 days. Electrolyte and water balance, plasma volume, hematocrit, and interstitial fluid volume were measured. […] In addition, there was a 50% increase in interstitial fluid volume, correlating to an edematous state.
# [2] = tested on: Normal Han Wistar female adult rats; assay: Study 2: rat model of PPAR-gamma activator induced cardiovascular changes leading to fluid retention and edema; assay type: in vivo
# Description: Rat Model of PPAR-Gamma Activator Induced Cardiovascular Changes Leading to Fluid Retention and Edema
# Normal Han Wistar female adult rats were chronically instrumented for measurement of cardiac output, blood pressure and total peripheral resistance and orally dosed (8 mg/kg, bid) with PPAR-gamma activator or vehicle (PEG400, 1 ml/kg) for 10 days. Data were collected for 7 days prior to the start of dosing, for 10 days of dosing, and for 7 days after discontinuation of dosing. […] The decrease in total peripheral resistance is believed to be the initial pharmacodynamic effect of PPAR-gamma activators leading to fluid retention and edema.
# [3] = tested on: Zucker Diabetic Fatty (ZDF) rats
# Description: Model of PPAR-Gamma Activator Induced Efficacy/Glycemic Control
# Two glucose-matched groups (n=6/group) of Zucker Diabetic Fatty (ZDF) rats, 7-8 weeks of age, were treated with vehicle (n-methylglucamine, 0.05M, 1 ml/kg, p.o.) or PPAR-gamma activator (5 mg/kg, bid).
# [4] = tested on: ZDF rats; conditions: for heart weight/body weight ratio versus normal range: literature normal 0.23 (0.19-0.25); for rats with continued glycemic control (non-fasted plasma glucose less than 250 mg/dl): five weeks, of 8 rats
# Description: Less Than Daily Dosing with PPAR-gamma Activator
# Three groups of 8 plasma glucose-matched ZDF rats with non-fasted glucose values greater than 250 mg/dl were dosed with PPAR-gamma activator. During the study plasma glucose and serum albumin were measured weekly, HbA1c was measured every other week, and heart weights and body weights were measured terminally. Reduction of plasma glucose and HbA1c are markers for anti-diabetic efficacy (glycemic control). Decreased plasma albumin concentration is a marker for plasma volume expansion or hemodilution. The heart weight-to-body weight ratio is a marker for increased cardiac output secondary to volume expansion.
# All three groups were initially dosed with PPAR-gamma activator for one week at 5 mg/kg twice daily, in order to achieve glycemic control as shown by plasma glucose less than 250 mg/dl, and volume expansion as shown by reduced serum albumin.
# Following the first week one group (Group BID) was continued on the daily dosing regimen while the other two were moved to less than daily dosing. Group BID continued to be dosed at 5 mg/kg twice daily, Group MWF was dosed at 10 mg/kg per day three times weekly (Monday/Wednesday/Friday), and Group MF was dosed at 10 mg/kg per day twice weekly (Monday/Friday). These three dosing regimens were continued for five weeks.
# [5] = after dosing was discontinued (10 days of 8 mg/kg bid)
smiles,measurement,setting,value
"Cc1oc(-c2ccccc2)nc1CCOc1ccc(C[C@H](Nc2ccccc2C(=O)c2ccccc2)C(=O)O)cc1 [GI262570, farglitazar]",decrease in hematocrit,[1],6%
same,electrolyte and water retention,[1],sustained increase
same,increase in interstitial fluid volume,[1],50%
same,increase in plasma volume,[1],6%
same,onset of change in total peripheral resistance and cardiac output after the initial dose,[2]; 8 mg/kg bid oral,within six hours
same,time at which total peripheral resistance and cardiac output changes reached steady state,[2]; 8 mg/kg bid oral,by treatment day four
same,cardiac output,"[2]; 8 mg/kg bid oral, 10 days",increased
same,total peripheral resistance,"[2]; 8 mg/kg bid oral, 10 days",decreased
same,full recovery of total peripheral resistance and cardiac output,[2]; [5],after four days
same,time until total peripheral resistance and cardiac output began to return toward control values,[2]; [5],≤ 24 h
same,average non-fasted plasma glucose,"[3]; 5 mg/kg bid, after four weeks, at the time dosing was discontinued, vehicle 464 mg/dl",154 mg/dL
same,fluid status of treated rats,"[3]; 5 mg/kg bid, after four weeks, n=6",volume expanded and two were overtly edematous
same,"hematocrit, end-of-treatment value","[3]; 5 mg/kg bid, four weeks",47%
same,average plasma glucose,"[3]; 10 days after discontinuation of 5 mg/kg bid treatment, vehicle 462 mg/dl",175 mg/dL
same,time for hematocrit to return to control value,[3]; after discontinuation of 5 mg/kg bid,≤ 3 days
same,hematocrit after discontinuation (control value),[3]; within 3 days after discontinuation of 5 mg/kg bid,52%
same,heart weight/body weight ratio versus normal range,[4]; BID dose group,increased beyond the normal range
same,increase in terminal heart weight to body weight ratio,[4]; BID group compared to the MWF and MF dose groups,13%
same,serum albumin concentration versus pre-treatment baseline,"[4]; BID group, throughout dosing",remained below the pre-treatment baseline value
same,rats with continued glycemic control (non-fasted plasma glucose less than 250 mg/dl),"[4]; Group BID, 5 mg/kg twice daily",8
same,rats with continued glycemic control (non-fasted plasma glucose less than 250 mg/dl),"[4]; Group MF, 10 mg/kg per day twice weekly",5
same,rats with continued glycemic control (non-fasted plasma glucose less than 250 mg/dl),"[4]; Group MWF, 10 mg/kg per day three times weekly",6
same,plasma glucose during the last two weeks of study,"[4]; MWF and MF dose groups (11 responding rats) versus BID, still well below pre-dosing levels",slightly higher
same,heart weight/body weight ratio versus normal range,[4]; MWF and MF dose groups,within normal ranges
same,serum albumin concentration versus pre-treatment baseline,"[4]; MWF and MF groups, by day 14 of reduced frequency dosing",returned to and remained at pre-treatment baseline values
same,mean non-fasted plasma glucose,"[4]; after initial week of 5 mg/kg twice daily, all rats, pre-treatment 321 mg/dl",138 mg/dL
same,serum albumin concentration,"[4]; after initial week of 5 mg/kg twice daily, all rats, pre-treatment 3.8 gm/dl",3.5 gm/dl
same,HbA1c,"[4]; all 19 animals with glycemic control (BID, MWF, MF groups)",below 6%
